Assays:
mice = details: mouse, in vivo
Description: (§1) The toxicity was determined in the conventional manner.

[1] = Acute toxicity (LD 50), oral route, mice; details: mouse, in vivo
Description: as §1

histidine decarboxylase = experiment: Histidine decarboxylase activity of guinea-pig kidneys after in vivo administration; details: for Activity expressed in % inhibition of the enzyme: guinea-pig renal enzyme, sacrificed five hours after administration, vs control animals
Description: The activity of the compound 458 L was compared with that of tritoqualine, which is, to the Applicants' knowledge, the only product used therapeutically for this objective. The technique for measuring the histadine decarboxylase activity of guinea-pig kidneys has been described by B. Kosmicki et al (J. Pharmacol. Paris 1974-5-3-331-342). The guinea-pigs were sacrificed five hours after administering the substances under investigation. The percentage reduction in the activity of the renal enzyme of the treated animals was determined with respect to control animals.

SMILES | chronic toxicity (tolerance) (mice) | LD50 [1] [mg/kg] | Activity expressed in % inhibition of the enzyme (histidine decarboxylase; dosage 10 mg/kg) [%] | Activity expressed in % inhibition of the enzyme (histidine decarboxylase; dosage 20 mg/kg) [%] | Activity expressed in % inhibition of the enzyme (histidine decarboxylase; dosage 40 mg/kg) [%] | Activity expressed in % inhibition of the enzyme (histidine decarboxylase; dosage 60 mg/kg) [%] | in vivo inhibition of histidine decarboxylase (in words) (histidine decarboxylase; in vivo)
CCOc1c(N)c2c(c(OCC)c1OCC)C(C1c3c(cc(OC)c(OC)c3OC)CCN1C)OC2=O (centres unmarked) [458 L, 2-methyl-6,7,8-trimethoxy-1[4,5,6-triethoxy-7-amino-3-phthalidyl]-1,2,3,4-tetrahydro-isoquinoline] | well tolerated | ~6000 | 14 | 21 | 31 | 41 | inhibiting in vivo the action of the enzyme histidine decarboxylase
CCOc1c(N)c2c(c(OCC)c1OCC)C(C1c3c(cc4c(c3OC)OCO4)CCN1C)OC2=O (centres unmarked) [Tritoqualine, tritoqualine, reference compound] | – | – | 10 | 20 | 20 | 22 | –

Reference: patent US4302458A, “Phthalidyl-isoquinoline derivatives” (Laborec Laboratoire de Recherches Biologiques, priority 1979, dated 1981)
